From patent publication US10428026B2, “Pyridinone dicarboxamide for use as bromodomain inhibitors” (GlaxoSmithKline Intellectual Property (No.2) Limited, priority 2015, dated 2019)

Biological target: T1, BRD4 BD2 (Homo sapiens, UniProt O60885, Y97A)
T1 construct: BRD4 (1-477) (Y97A) and (Y390A); made in house; host or cells: E. coli (pET15b vector)
Assay: BRD4 BD2 TR-FRET competition assay
Format: binding
Settings: BRD4 BD2 TR-FRET; read-out: pIC50 in the BRD4 BD2 assay (converted)

Structure (SMILES) | IC50
CNC(=O)c1cc(C(=O)NC2CCC2)cn(Cc2cnn(C)c2)c1=O [Example 163, N5-Cyclobutyl-N3-methyl-1-((1-methyl-1H-pyrazol-4-yl)methyl)-2-oxo-1,2-dihydropyridine-3,5-dicarboxamide] | 1 to 100 µM
CNC(=O)c1cc(C(=O)NC2CCC2)cn([C@@H](C)c2ccccc2)c1=O [Example 171, (S)-N5-Cyclobutyl-N3-methyl-2-oxo-1-(1-phenylethyl)-1,2-dihydropyridine-3,5-dicarboxamide] | 1 to 100 µM
CCO[C@H]1C[C@H]1NC(=O)c1cc(C(=O)NC)c(=O)n(Cc2cccc(C)c2)c1 (racemic) [Example 222, (+/−)-N5-((cis)-2-ethoxycyclopropyl)-N3-methyl-1-(3-methylbenzyl)-2-oxo-1,2-dihydropyridine-3,5-dicarboxamide] | 1 to 100 µM
CNC(=O)c1cc(C(=O)N[C@@H]2CCC[C@H](O)C2)cn(Cc2ccccc2)c1=O [Example 219, 1-Benzyl-N5-((1R,3S)-3-hydroxycyclohexyl)-N3-methyl-2-oxo-1,2-dihydropyridine-3,5-dicarboxamide] | 1 to 100 µM
CNC(=O)c1cc(C(=O)N[C@H]2C[C@@H](C(=O)O)C2)cn(Cc2ccccc2)c1=O [Example 169, (cis)-3-(1-Benzyl-5-(methylcarbamoyl)-6-oxo-1,6-dihydropyridine-3-carboxamido)cyclobutane-carboxylic acid] | 1 to 100 µM
CNC(=O)c1cc(C(=O)NC[C@H]2CCC[C@@H]2O)cn(Cc2ccccc2)c1=O (racemic) [Example 196, (+/−)-1-Benzyl-N5-(((1R,2S)-2-hydroxycyclopentyl)methyl)-N3-methyl-2-oxo-1,2-dihydropyridine-3,5-dicarboxamide] | 1 to 100 µM
CNC(=O)c1cc(C(=O)NC2CC2)cn(C(CO)c2ccccc2)c1=O (single isomer, unassigned) [Example 324, (R*)—N^5-Cyclopropyl-1-(2-hydroxy-1-phenylethyl)-N^3-methyl-2-oxo-1,2-dihydropyridine-3,5-dicarboxamide] | 1 to 100 µM
CNC(=O)c1cc(C(=O)N[C@@H]2CCCC[C@H]2O)cn(Cc2ccccc2)c1=O (racemic) [Example 185, (+/−)-1-Benzyl-N5-((trans)-2-hydroxycyclohexyl)-N3-methyl-2-oxo-1,2-dihydropyridine-3,5-dicarboxamide] | 1 to 100 µM
CNC(=O)c1cc(C(=O)N[C@@H]2CCC[C@@H](O)C2)cn(Cc2ccccc2)c1=O (relative stereo) [Example 217, 1-Benzyl-N5-((1R*,3R*)-3-hydroxycyclohexyl)-N3-methyl-2-oxo-1,2-dihydropyridine-3,5-dicarboxamide] | 1 to 100 µM
CNC(=O)c1cc(C(=O)N[C@@H]2C[C@H]2CO)cn(C(C)c2cccc(C)c2)c1=O (mixture of isomers) [Example 267, N5-((trans)-2-(Hydroxymethyl)cyclopropyl)-N3-methyl-2-oxo-1-((S*)-1-(m-tolyl)ethyl)-1,2-dihydropyridine-3,5-dicarboxamide] | 1 to 100 µM
CNC(=O)c1cc(C(=O)NC[C@H]2CC[C@@H](O)CC2)cn(Cc2ccccc2)c1=O [Example 201, 1-Benzyl-N5-(((cis)-4-hydroxycyclohexyl)methyl)-N3-methyl-2-oxo-1,2-dihydropyridine-3,5-dicarboxamide] | 1 to 100 µM
CNC(=O)c1cc(C(=O)N[C@H]2C[C@@H]2C)cn(Cc2cc(C)ccn2)c1=O [Example 335, N^3-Methyl-N^5-((1S,2S)-2-methylcyclopropyl)-1-((4-methylpyridin-2-yl)methyl)-2-oxo-1,2-dihydropyridine-3,5-dicarboxamide] | 1 to 100 µM
CNC(=O)c1cc(C(=O)NC2CC2CO)cn(Cc2cccc(C)c2F)c1=O (centres unmarked) [Example 214, 1-(2-Fluoro-3-methylbenzyl)-N5-(2-(hydroxymethyl)cyclopropyl)-N3-methyl-2-oxo-1,2-dihydropyridine-3,5-dicarboxamide] | 1 to 100 µM
CNC(=O)c1cc(C(=O)NC2CC2)cn(C(C)c2ccccc2C)c1=O (single isomer, unassigned) [Example 213, (R*)-N5-Cyclopropyl-N3-methyl-2-oxo-1-(1-(o-tolyl)ethyl)-1,2-dihydropyridine-3,5-dicarboxamide] | 1 to 100 µM
CNC(=O)c1cc(C(=O)NC[C@@H]2CC[C@H](O)C2)cn(Cc2ccccc2)c1=O (racemic) [Example 199, (+/−)-1-Benzyl-N5-(((cis)-3-hydroxycyclopentyl)methyl)-N3-methyl-2-oxo-1,2-dihydropyridine-3,5-dicarboxamide] | 1 to 100 µM
CNC(=O)c1cc(C(=O)N[C@@H]2CC[C@H]2OC)cn(Cc2ccccc2)c1=O (racemic) [Example 243, (+/−)-1-Benzyl-N5-((trans)-2-methoxycyclobutyl)-N3-methyl-2-oxo-1,2-dihydropyridine-3,5-dicarboxamide] | 1 to 100 µM
CNC(=O)c1cc(C(=O)NC[C@H]2CC[C@H](O)CC2)cn(Cc2ccccc2)c1=O [Example 200, 1-Benzyl-N5-(((trans)-4-hydroxycyclohexyl)methyl)-N3-methyl-2-oxo-1,2-dihydropyridine-3,5-dicarboxamide] | 1 to 100 µM
CCCC1(NC(=O)c2cc(C(=O)NC)c(=O)n(Cc3ccccc3)c2)CC1 [Example 178, 1-Benzyl-N3-methyl-2-oxo-N5-(1-propylcyclopropyl)-1,2-dihydropyridine-3,5-dicarboxamide] | 1 to 100 µM
CNC(=O)c1cc(C(=O)N[C@H]2C[C@@H]2C)cn(Cc2ccc(C(=O)O)cc2)c1=O [Example 339, 4-((3-(Methylcarbamoyl)-5-(((1S,2S)-2-methylcyclopropyl)carbamoyl)-2-oxopyridin-1(2H)-yl)methyl)benzoic acid] | 1 to 100 µM
CCOC1CC(NC(=O)c2cc(C(=O)NC)c(=O)n(Cc3ccccc3)c2)C1OC (centres unmarked) [Example 177, 1-Benzyl-N5-(3-ethoxy-2-methoxycyclobutyl)-N3-methyl-2-oxo-1,2-dihydropyridine-3,5-dicarboxamide] | 1 to 100 µM
